Laboratory results published in article PMC4823954, “From fighting depression to conquering tumors: a novel tricyclic thiazepine compound as a tubulin polymerization inhibitor” (Cell Death & Disease, 2016).

Key:
Test in all cases: KINOMEscan
Format in all cases: binding
Conditions in all cases: read-out: % Ctrl
CAMK1D = target: T1, CAMK1D (Homo sapiens, UniProt Q8IU85)
T1 construct: purchased DiscoveRx KINOMEscan
Summary of the method: (§1)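 Competition binding panel of 442 non-mutant kinases: test compound at 5 and 10 μM competed with an active-site-directed ligand for 1 h with shaking. Bound kinase was eluted with 0.5 μM ligand and quantified by qPCR; %Ctrl = (compound − positive control)/(DMSO − positive control) × 100, lower meaning tighter binding.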

CAMK4 = target: T2, CAMK4 (Homo sapiens, UniProt Q16566)
T2 construct: purchased DiscoveRx KINOMEscan
Summary of the method: as §1

FES = target: T3, FES (Homo sapiens, UniProt P07332)
T3 construct: purchased DiscoveRx KINOMEscan
Summary of the method: as §1

PIK3C2B = target: T4, PIK3C2B (Homo sapiens, UniProt O00750)
T4 construct: purchased DiscoveRx KINOMEscan
Summary of the method: as §1

PKN2 = target: T5, PKN2 (Homo sapiens, UniProt Q16513)
T5 construct: purchased DiscoveRx KINOMEscan
Summary of the method: as §1

EPHB4 = target: T6, EPHB4 (Homo sapiens, UniProt P54760)
T6 construct: purchased DiscoveRx KINOMEscan
Summary of the method: as §1

MKNK1 = target: T7, MKNK1 (Homo sapiens, UniProt Q9BUB5)
T7 construct: purchased DiscoveRx KINOMEscan
Summary of the method: as §1

SRMS = target: T8, SRMS (Homo sapiens, UniProt Q9H3Y6)
T8 construct: purchased DiscoveRx KINOMEscan
Summary of the method: as §1

EPHA8 = target: T9, EPHA8 (Homo sapiens, UniProt P29322)
T9 construct: purchased DiscoveRx KINOMEscan
Summary of the method: as §1

PHKG2 = target: T10, PHKG2 (Homo sapiens, UniProt P15735)
T10 construct: purchased DiscoveRx KINOMEscan
Summary of the method: as §1

DRAK1 = target: T11, DRAK1 (Homo sapiens, UniProt Q9UEE5)
T11 construct: purchased DiscoveRx KINOMEscan
Summary of the method: as §1

RIOK2 = target: T12, RIOK2 (Homo sapiens, UniProt Q9BVS4)
T12 construct: purchased DiscoveRx KINOMEscan
Summary of the method: as §1

TGFBR2 = target: T13, TGFBR2 (Homo sapiens, UniProt P37173)
T13 construct: purchased DiscoveRx KINOMEscan
Summary of the method: as §1

[1] = target: T14, RSK2(Kin.Dom.1-N-terminal) (Homo sapiens, UniProt P51812)
T14 construct: RSK2(Kin.Dom.1-N-terminal); purchased DiscoveRx KINOMEscan
Summary of the method: as §1

EPHA1 = target: T15, EPHA1 (Homo sapiens, UniProt P21709)
T15 construct: purchased DiscoveRx KINOMEscan
Summary of the method: as §1

MLCK = target: T16, MLCK (Homo sapiens, UniProt Q32MK0)
T16 construct: purchased DiscoveRx KINOMEscan
Summary of the method: as §1

[2] = target: T17, ABL1(M351T)-phosphorylated (Homo sapiens, UniProt P00519, M351T)
T17 construct: purchased DiscoveRx KINOMEscan

RAF1 = target: T18, RAF1 (Homo sapiens, UniProt P04049)
T18 construct: purchased DiscoveRx KINOMEscan
Summary of the method: as §1

LZK = target: T19, LZK (Homo sapiens, UniProt O43283)
T19 construct: purchased DiscoveRx KINOMEscan
Summary of the method: as §1

ROCK2 = target: T20, ROCK2 (Homo sapiens, UniProt O75116)
T20 construct: purchased DiscoveRx KINOMEscan
Summary of the method: as §1

EPHB1 = target: T21, EPHB1 (Homo sapiens, UniProt P54762)
T21 construct: purchased DiscoveRx KINOMEscan
Summary of the method: as §1

MYO3B = target: T22, MYO3B (Homo sapiens, UniProt Q8WXR4)
T22 construct: purchased DiscoveRx KINOMEscan
Summary of the method: as §1

CSNK1A1 = target: T23, CSNK1A1 (Homo sapiens, UniProt P48729)
T23 construct: purchased DiscoveRx KINOMEscan
Summary of the method: as §1

BMPR2 = target: T24, BMPR2 (Homo sapiens, UniProt Q13873)
T24 construct: purchased DiscoveRx KINOMEscan
Summary of the method: as §1

TRKA = target: T25, TRKA (Homo sapiens, UniProt P04629)
T25 construct: purchased DiscoveRx KINOMEscan
Summary of the method: as §1

ROCK1 = target: T26, ROCK1 (Homo sapiens, UniProt Q13464)
T26 construct: purchased DiscoveRx KINOMEscan
Summary of the method: as §1

PIM3 = target: T27, PIM3 (Homo sapiens, UniProt Q86V86)
T27 construct: purchased DiscoveRx KINOMEscan
Summary of the method: as §1

EGFR = target: T28, EGFR (Homo sapiens, UniProt P00533)
T28 construct: purchased DiscoveRx KINOMEscan
Summary of the method: as §1

SYK = target: T29, SYK (Homo sapiens, UniProt P43405)
T29 construct: purchased DiscoveRx KINOMEscan
Summary of the method: as §1

TAOK2 = target: T30, TAOK2 (Homo sapiens, UniProt Q9UL54)
T30 construct: purchased DiscoveRx KINOMEscan
Summary of the method: as §1

T4 sequence (O00750 whole entry): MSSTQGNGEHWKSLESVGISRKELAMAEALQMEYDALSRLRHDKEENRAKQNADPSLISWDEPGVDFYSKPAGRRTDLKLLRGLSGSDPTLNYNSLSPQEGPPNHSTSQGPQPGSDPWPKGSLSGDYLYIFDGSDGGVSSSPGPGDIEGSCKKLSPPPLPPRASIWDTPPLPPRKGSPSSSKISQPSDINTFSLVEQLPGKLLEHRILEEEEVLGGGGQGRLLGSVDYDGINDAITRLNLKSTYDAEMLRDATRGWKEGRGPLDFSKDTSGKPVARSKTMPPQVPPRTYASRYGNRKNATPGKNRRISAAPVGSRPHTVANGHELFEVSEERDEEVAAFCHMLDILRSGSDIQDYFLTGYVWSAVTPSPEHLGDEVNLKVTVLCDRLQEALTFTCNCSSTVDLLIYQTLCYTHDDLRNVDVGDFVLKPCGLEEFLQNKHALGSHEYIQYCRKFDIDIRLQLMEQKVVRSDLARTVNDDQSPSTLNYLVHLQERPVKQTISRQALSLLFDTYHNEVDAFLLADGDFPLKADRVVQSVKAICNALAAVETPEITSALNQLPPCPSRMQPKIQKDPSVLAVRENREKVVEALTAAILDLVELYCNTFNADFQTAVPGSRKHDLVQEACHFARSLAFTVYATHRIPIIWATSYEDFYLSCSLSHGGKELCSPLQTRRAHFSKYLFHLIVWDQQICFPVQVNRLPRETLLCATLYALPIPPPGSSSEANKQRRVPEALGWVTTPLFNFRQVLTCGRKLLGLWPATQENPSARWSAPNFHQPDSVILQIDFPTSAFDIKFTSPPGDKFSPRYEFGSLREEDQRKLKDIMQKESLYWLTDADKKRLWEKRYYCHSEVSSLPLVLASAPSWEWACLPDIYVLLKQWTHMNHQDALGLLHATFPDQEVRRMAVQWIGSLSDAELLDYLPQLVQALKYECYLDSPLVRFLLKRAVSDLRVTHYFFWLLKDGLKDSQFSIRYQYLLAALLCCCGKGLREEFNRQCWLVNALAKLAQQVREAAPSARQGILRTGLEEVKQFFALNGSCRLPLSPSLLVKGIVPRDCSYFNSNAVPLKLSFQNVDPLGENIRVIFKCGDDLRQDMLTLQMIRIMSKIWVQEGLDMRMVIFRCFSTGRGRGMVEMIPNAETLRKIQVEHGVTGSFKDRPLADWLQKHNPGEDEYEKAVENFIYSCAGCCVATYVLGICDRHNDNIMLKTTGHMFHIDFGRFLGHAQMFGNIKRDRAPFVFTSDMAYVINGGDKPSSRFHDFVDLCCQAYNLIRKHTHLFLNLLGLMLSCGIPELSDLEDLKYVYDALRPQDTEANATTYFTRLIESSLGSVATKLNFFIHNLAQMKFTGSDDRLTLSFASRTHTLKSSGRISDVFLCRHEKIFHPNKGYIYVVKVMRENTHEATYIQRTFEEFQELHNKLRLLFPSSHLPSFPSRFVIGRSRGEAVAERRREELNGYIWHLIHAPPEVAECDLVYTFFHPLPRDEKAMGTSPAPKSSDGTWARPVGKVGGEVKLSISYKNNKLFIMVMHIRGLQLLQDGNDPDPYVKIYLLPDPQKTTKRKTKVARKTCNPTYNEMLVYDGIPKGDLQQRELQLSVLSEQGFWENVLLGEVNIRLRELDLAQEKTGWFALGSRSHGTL
T26 sequence (Q13464 whole entry): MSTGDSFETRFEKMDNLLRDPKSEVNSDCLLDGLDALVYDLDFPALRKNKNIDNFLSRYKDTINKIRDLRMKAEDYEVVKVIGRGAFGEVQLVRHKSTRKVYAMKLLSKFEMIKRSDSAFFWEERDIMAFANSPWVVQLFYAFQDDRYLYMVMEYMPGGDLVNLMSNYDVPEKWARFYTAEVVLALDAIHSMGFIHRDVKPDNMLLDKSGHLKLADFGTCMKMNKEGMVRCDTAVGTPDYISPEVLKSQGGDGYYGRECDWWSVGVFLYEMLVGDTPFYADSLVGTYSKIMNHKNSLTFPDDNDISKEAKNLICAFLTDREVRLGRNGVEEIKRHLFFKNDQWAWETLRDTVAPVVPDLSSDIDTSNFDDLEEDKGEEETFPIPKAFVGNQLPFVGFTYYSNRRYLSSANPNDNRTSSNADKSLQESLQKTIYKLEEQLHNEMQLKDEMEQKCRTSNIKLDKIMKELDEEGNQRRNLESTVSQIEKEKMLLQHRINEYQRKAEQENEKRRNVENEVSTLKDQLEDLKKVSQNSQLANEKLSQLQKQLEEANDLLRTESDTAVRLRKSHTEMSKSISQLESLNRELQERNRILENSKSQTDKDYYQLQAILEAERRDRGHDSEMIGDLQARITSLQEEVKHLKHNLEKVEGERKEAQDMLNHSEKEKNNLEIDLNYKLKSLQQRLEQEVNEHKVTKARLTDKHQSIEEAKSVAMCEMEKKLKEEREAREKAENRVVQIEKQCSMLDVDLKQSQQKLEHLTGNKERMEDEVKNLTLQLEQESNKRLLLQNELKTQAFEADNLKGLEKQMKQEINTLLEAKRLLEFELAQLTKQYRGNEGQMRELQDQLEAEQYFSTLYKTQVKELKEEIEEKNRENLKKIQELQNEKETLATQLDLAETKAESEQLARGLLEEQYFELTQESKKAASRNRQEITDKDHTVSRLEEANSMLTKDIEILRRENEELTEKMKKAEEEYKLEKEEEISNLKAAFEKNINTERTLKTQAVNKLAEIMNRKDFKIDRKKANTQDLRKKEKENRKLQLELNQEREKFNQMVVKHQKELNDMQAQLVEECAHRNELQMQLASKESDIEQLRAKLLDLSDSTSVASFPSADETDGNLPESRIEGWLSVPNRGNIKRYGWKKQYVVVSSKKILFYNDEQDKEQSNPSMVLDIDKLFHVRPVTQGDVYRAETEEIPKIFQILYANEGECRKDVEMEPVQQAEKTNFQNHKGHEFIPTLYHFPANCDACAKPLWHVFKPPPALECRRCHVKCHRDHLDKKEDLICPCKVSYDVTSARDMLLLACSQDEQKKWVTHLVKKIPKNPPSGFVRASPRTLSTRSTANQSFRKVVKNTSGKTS
T15 sequence (P21709 26-976): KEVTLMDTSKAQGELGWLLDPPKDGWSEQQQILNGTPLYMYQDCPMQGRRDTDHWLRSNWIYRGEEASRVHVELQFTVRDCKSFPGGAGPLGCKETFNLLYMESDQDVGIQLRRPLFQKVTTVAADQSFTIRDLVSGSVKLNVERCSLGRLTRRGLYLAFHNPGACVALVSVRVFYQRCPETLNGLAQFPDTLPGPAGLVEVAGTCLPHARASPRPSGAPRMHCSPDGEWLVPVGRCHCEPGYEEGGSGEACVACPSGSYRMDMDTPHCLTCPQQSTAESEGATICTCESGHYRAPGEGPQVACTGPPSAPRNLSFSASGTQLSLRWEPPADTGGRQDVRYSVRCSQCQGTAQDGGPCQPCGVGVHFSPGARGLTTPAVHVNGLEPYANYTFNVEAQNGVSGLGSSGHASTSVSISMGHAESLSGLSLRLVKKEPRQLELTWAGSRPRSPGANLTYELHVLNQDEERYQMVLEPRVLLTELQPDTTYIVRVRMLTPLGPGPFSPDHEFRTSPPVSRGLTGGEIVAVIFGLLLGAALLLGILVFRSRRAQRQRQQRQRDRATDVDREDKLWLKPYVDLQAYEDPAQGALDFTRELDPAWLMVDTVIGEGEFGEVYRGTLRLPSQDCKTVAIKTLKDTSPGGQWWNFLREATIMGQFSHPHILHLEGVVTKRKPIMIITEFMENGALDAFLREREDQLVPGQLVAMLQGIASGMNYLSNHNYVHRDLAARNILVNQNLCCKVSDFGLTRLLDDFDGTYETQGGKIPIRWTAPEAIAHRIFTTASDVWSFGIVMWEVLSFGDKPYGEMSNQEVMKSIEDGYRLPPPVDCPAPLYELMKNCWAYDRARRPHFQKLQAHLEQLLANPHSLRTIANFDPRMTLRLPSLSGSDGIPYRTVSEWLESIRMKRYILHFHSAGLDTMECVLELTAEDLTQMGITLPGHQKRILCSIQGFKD
T21 sequence (P54762 18-984): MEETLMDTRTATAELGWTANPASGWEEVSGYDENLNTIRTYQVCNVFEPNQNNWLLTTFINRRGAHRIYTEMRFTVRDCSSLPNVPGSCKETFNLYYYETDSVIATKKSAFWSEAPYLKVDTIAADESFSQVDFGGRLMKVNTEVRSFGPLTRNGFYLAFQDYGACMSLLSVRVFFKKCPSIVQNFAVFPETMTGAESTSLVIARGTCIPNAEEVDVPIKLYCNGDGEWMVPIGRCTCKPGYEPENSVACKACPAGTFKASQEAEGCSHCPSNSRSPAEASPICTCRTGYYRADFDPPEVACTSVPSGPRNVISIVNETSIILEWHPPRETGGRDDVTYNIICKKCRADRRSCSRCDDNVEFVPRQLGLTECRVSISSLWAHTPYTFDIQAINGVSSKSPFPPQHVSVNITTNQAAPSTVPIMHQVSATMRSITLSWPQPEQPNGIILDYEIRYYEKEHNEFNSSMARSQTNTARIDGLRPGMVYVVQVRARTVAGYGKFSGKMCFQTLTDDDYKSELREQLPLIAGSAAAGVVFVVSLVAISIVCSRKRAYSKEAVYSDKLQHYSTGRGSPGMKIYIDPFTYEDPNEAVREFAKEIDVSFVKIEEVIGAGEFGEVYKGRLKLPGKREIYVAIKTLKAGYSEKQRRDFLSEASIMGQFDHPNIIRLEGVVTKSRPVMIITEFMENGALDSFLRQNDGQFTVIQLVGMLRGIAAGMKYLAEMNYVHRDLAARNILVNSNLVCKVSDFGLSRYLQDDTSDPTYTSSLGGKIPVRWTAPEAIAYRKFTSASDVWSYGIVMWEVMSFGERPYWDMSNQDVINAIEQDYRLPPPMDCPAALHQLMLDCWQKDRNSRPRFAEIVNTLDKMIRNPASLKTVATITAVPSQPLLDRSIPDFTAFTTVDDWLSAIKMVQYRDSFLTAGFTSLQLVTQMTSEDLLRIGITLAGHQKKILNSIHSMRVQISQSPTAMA

Cc1ccc(C2=Nc3cccnc3S(=O)(=O)c3ccccc32)cc1 [TBPT, 6-(p-tolyl)benzo[f] pyrido[2,3-b][1,4] thiazepine 11,11-dioxide]
86%: remaining binding at 10 µM (CSNK1A1; 10 μM)
98%: remaining binding at 10 µM (FES; 10 μM) | remaining binding at 10 µM (EPHB4; 10 μM) | remaining binding at 5 µM ([1]; 5 μM)
95%: remaining binding at 10 µM (PKN2; 10 μM) | remaining binding at 5 µM (RIOK2; 5 μM) | remaining binding at 10 µM (MLCK; 10 μM)
94%: remaining binding at 5 µM (DRAK1; 5 μM) | remaining binding at 10 µM (EPHA1; 10 μM)
90%: remaining binding at 5 µM (TAOK2; 5 μM)
84%: remaining binding at 5 µM (ROCK1; 5 μM)
67%: remaining binding at 10 µM (TAOK2; 10 μM)
97%: remaining binding at 10 µM (SRMS; 10 μM) | remaining binding at 10 µM (TRKA; 10 μM)
100%: remaining binding at 5 µM (CAMK4; 5 μM) | remaining binding at 5 µM (FES; 5 μM) | remaining binding at 5 µM (PIK3C2B; 5 μM) | remaining binding at 10 µM (PIK3C2B; 10 μM) | remaining binding at 5 µM (PKN2; 5 μM) | remaining binding at 5 µM (EPHB4; 5 μM) | remaining binding at 10 µM (MKNK1; 10 μM) | remaining binding at 5 µM (PHKG2; 5 μM) | remaining binding at 10 µM (PHKG2; 10 μM) | remaining binding at 10 µM (RIOK2; 10 μM) | remaining binding at 5 µM (TGFBR2; 5 μM) | remaining binding at 10 µM ([1]; 10 μM) | remaining binding at 5 µM (EPHA1; 5 μM) | remaining binding at 10 µM ([2]; 10 μM) | remaining binding at 5 µM (RAF1; 5 μM) | remaining binding at 5 µM (LZK; 5 μM) | remaining binding at 5 µM (ROCK2; 5 μM) | remaining binding at 5 µM (EPHB1; 5 μM) | remaining binding at 10 µM (EPHB1; 10 μM) | remaining binding at 5 µM (MYO3B; 5 μM) | remaining binding at 10 µM (MYO3B; 10 μM) | remaining binding at 5 µM (CSNK1A1; 5 μM) | remaining binding at 10 µM (BMPR2; 10 μM) | remaining binding at 5 µM (TRKA; 5 μM) | remaining binding at 10 µM (ROCK1; 10 μM) | remaining binding at 10 µM (PIM3; 10 μM) | remaining binding at 5 µM (EGFR; 5 μM) | remaining binding at 5 µM (SYK; 5 μM) | remaining binding at 10 µM (SYK; 10 μM)
91%: remaining binding at 10 µM (CAMK1D; 10 μM) | remaining binding at 10 µM (RAF1; 10 μM) | remaining binding at 10 µM (EGFR; 10 μM)
87%: remaining binding at 5 µM (SRMS; 5 μM)
85%: remaining binding at 5 µM (BMPR2; 5 μM)
92%: remaining binding at 10 µM (DRAK1; 10 μM) | remaining binding at 5 µM (MLCK; 5 μM) | remaining binding at 10 µM (ROCK2; 10 μM)
36%: remaining binding at 5 µM (MKNK1; 5 μM)
96%: remaining binding at 5 µM (EPHA8; 5 μM) | remaining binding at 5 µM (PIM3; 5 μM)
93%: remaining binding at 10 µM (CAMK4; 10 μM) | remaining binding at 10 µM (EPHA8; 10 μM) | remaining binding at 10 µM (LZK; 10 μM)
81%: remaining binding at 5 µM (CAMK1D; 5 μM) | remaining binding at 10 µM (TGFBR2; 10 μM) | remaining binding at 5 µM ([2]; 5 μM)
